This series is described as follows: gradient 5% acetonitrile 3 min, to 50% in 2 min, to 85% in 15 min, held 3 min, 100 µL/min. As to conditions: column: Zorbax Extend-C18 2.1 x 50 mm; eluents: water / acetonitrile, 0.1% formic acid. In a few lines: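 Using water and acetonitrile that each contained 0.1% formic acid, mixtures of ~100 pure standards were separated at 100 μL/min on a Zorbax Extend-C18 column (2.1 × 50 mm, 1.8 μm). The HPLC fed a quadrupole time-of-flight mass spectrometer working in positive and negative ionization mode, with dead and dwell volumes of 40 μL and 900 μL. Data were acquired over 3 months. Retention time was read from computationally picked adduct peaks after manual inspection of each.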
Molecule `N#Cc1ccc(C(=O)NC(c2ccccc2)c2nnc(N3CCCC3)o2)cc1` (centres undefined) registered an RP-LC retention time of 765 s.

With `CCCC(=O)Nc1nc(-c2ccc3c(c2)NC(=O)CO3)cs1`, the RP-LC retention time came to 728 s.

As for `CCCCn1c(=O)c2ccccc2n(Cc2nc(-c3ccccc3C)no2)c1=O`, the RP-LC retention time turned out to be 1240 s.

On to `CN(CCc1noc(COc2ccc(F)cc2)n1)C(=O)Nc1ccc(Br)cc1`, for which the RP-LC retention time came to 980 s.

As to `Cc1nc(C2CCOCC2)n(C2CCN(S(=O)(=O)c3ccc(Cl)cc3C)C2)n1` (centres undefined), the RP-LC retention time worked out at 771 s.

In turn, `O=C(CN1CCc2ccccc2C1C(=O)N1CCCC1)N1CCN(c2ccccc2)CC1` (centres undefined) gave an RP-LC retention time of 696 s.

`Cc1ccc(-c2csc3c(=O)n(Cc4cc(=O)n5ccccc5n4)cnc23)cc1`: the RP-LC retention time came out at 847 s.

`Cc1cccc(NC(=O)Nc2ccc(-c3cn4ccc(C)nc4n3)cc2)c1` came in with an RP-LC retention time of 670 s.

In the case of `CCN(CC)S(=O)(=O)c1cc(-c2nnc(-c3ccc(C)cc3)o2)ccc1Cl`, the RP-LC retention time came out at 1190 s.

With `CCc1ccccc1NC(=O)CN1C(=O)C2CCCCN2c2ccc(S(=O)(=O)N(C)C)cc21` (centres undefined), the RP-LC retention time was found to be 918 s.

Molecule `O=C(NCCC1=CCCCC1)C(=O)NCC1(CO)CC1` showed an RP-LC retention time of 713 s.

Turning to `O=C(Nc1cnc(N2CCCCC2)nc1)c1cc(F)cc(F)c1`, the RP-LC retention time turned out to be 984 s.

The molecule `COC(=O)c1cccc(C(=O)N2CCc3ccccc32)n1` had an RP-LC retention time of 797 s.

`COc1ccc(OC)c(NC(=O)N(C)CCc2noc(-c3ccc(Cl)cc3)n2)c1` came in with an RP-LC retention time of 972 s.

`Cc1cccc(N(C)C(=O)Cn2nc3nc(N4CCCC4)ccn3c2=O)c1` yielded an RP-LC retention time of 678 s.

Regarding `COc1ccc(NC(=O)c2noc3c2CCC3)cc1OC`, the RP-LC retention time stood at 811 s.

On to `CCc1ccc(NS(=O)(=O)c2cc3n(c2)CCCN(CC)C3=O)cc1`, for which the RP-LC retention time came to 801 s.

For the molecule `O=C(Nc1c(-c2ccc(F)cc2)nc2ccccn12)c1cccc([N+](=O)[O-])c1`, the RP-LC retention time turned out to be 684 s.

The molecule `Cc1cccn2cc(-c3ccc(NS(=O)(=O)c4ccc(Cl)cc4)cc3)nc12` had an RP-LC retention time of 701 s.

`O=C(Cc1cc(-c2ccc3c(c2)OCCO3)on1)N1CCN(c2ccccc2F)CC1` yielded an RP-LC retention time of 895 s.

As to `Cc1ccc(Nc2c(-c3ccc(N4CCOCC4)cc3)nc3ccc(Cl)cn23)cc1`, the RP-LC retention time turned out to be 777 s.

As for `CCCNc1cc(N2CCCC(CCC(=O)NCc3ccc(F)cc3)C2)ncn1` (centres undefined), the RP-LC retention time stood at 683 s.

In the case of `COCc1nc(C2CCN(S(=O)(=O)Cc3ccccc3)C2)no1` (centres undefined), the RP-LC retention time came out at 795 s.

In turn, `CCCc1nc(-c2c(C)cc(C)nc2NC(=O)c2ccc(F)cc2F)no1` displayed an RP-LC retention time of 895 s.

For `O=C(O)C1CCc2sc(C(=O)N3CCOCC3)cc2C1` (centres undefined), the RP-LC retention time worked out at 625 s.

Take `O=C(Nc1cnc(-c2cccc(Cl)c2)nc1)c1nccc2ccccc12`: the RP-LC retention time was 1370 s.

Take `CC(C)CCNC(=O)N1CCN(Cc2nc3cc(C(=O)N(C)C)ccc3o2)CC1`: the RP-LC retention time amounted to 614 s.

In turn, `Cc1ccc(-c2c(C(=O)NCC3CCCO3)nc3ccccn23)cc1` (centres undefined) yielded an RP-LC retention time of 730 s.

Molecule `CCN1C(=O)CCc2cc(NC(=O)C3CCC3)ccc21` showed an RP-LC retention time of 691 s.

Molecule `CC1CN(C(=O)CCC(=O)N2CCN(c3ccccn3)CC2)c2ccccc2O1` (centres undefined) yielded an RP-LC retention time of 623 s.

`CCOc1cccc(-c2noc(Cn3c(=O)n(-c4cccc(OC)c4)c(=O)c4sccc43)n2)c1` yielded an RP-LC retention time of 970 s.

`O=C(NCc1cc(F)cc(F)c1)C1CCc2nc(N3CCCCC3)ncc2C1` (centres undefined) yielded an RP-LC retention time of 778 s.

The molecule `CC(C)CC(NC(=O)c1ccc2c(c1)OCO2)C(=O)Nc1nc2ccccc2[nH]1` (centres undefined) had an RP-LC retention time of 710 s.

The molecule `CCC1(O)CCC12CCN(C(=O)CC(C)C)CC2` (centres undefined) yielded an RP-LC retention time of 744 s.

The molecule `CC1Oc2ccc(-c3csc(NC(=O)C(C)(C)C)n3)cc2NC1=O` (centres undefined) registered an RP-LC retention time of 856 s.

Turning to `CCCC(=O)Nc1ccc(CCc2nc3ccc(C(=O)NCCC(C)C)cc3[nH]2)cc1`, the RP-LC retention time amounted to 674 s.

`CCc1nc(-c2csc(S(=O)(=O)N3CCCC(C(=O)Nc4ccc(C)cc4Cl)C3)c2)no1` (centres undefined) came in with an RP-LC retention time of 1100 s.

`Cc1nc(-c2ccccc2)nc2c1CCC(=O)N2Cc1cccnc1` registered an RP-LC retention time of 673 s.

`O=C(Cn1cccc1-c1nc(-c2ccccc2)cs1)N1CCN(C(=O)c2ccco2)CC1` yielded an RP-LC retention time of 899 s.

In turn, `CCc1ccc(CNC(=O)c2cn(-c3ccc(-c4nc(C)no4)cn3)cn2)cc1` returned an RP-LC retention time of 805 s.

For the molecule `CC(C)c1ccc(OCC(=O)Nc2nnc(C3CC(=O)N(c4ccccc4)C3)o2)cc1` (centres undefined), the RP-LC retention time was 728 s.

Take `C=CCn1c(=O)c2c(nc3n2CCCCN3c2ccc(OCC)cc2)n(C)c1=O`: the RP-LC retention time is 917 s.

On to `CCCn1cnc2ccc(-c3noc(C4CC(=O)N(c5ccc(C)cc5)C4)n3)cc21` (centres undefined), for which the RP-LC retention time was 735 s.

`Cc1cc(C)cc(NC(=O)c2cccn2Cc2noc(C3CC3)n2)c1` gave an RP-LC retention time of 994 s.

`Cc1ccc(N2CC(C(=O)NCC(=O)N3CCCc4ccccc43)CC2=O)cc1C` (centres undefined) had an RP-LC retention time of 822 s.

Regarding `Cc1ccc(NC(=O)c2c(C)oc3nc(C)nc(N4CCCC4)c23)cc1`, the RP-LC retention time was found to be 774 s.

As to `Cc1ccc(NC(=O)Cn2nc3c(N4CCN(c5ccccc5)CC4)nccn3c2=O)cc1C`, the RP-LC retention time worked out at 975 s.

In the case of `COc1ccc(-c2c(C)noc2NC(C)=O)cc1S(=O)(=O)N1CCC(C)CC1`, the RP-LC retention time turned out to be 801 s.

Consider `CCCNC(=O)Cc1cn(CC)c2ncccc12`, for which the RP-LC retention time was 611 s.

`CC(C)Cc1ccc([C@@H](C)C(=O)NS(C)(=O)=O)cc1`: the RP-LC retention time was found to be 1070 s.

In turn, `O=C1CCCc2nc(N3CCN(c4ccccn4)CC3)nc(Nc3ccccc3)c21` came in with an RP-LC retention time of 735 s.

Turning to `COC(=O)c1cc(OCC(=O)Nc2ccc3c(c2)OCCO3)c2cc(Cl)ccc2n1`, the RP-LC retention time was 851 s.

On to `Cc1ccc(-c2nc3n(CC(=O)NC(C)C)c4c(c(=O)n3n2)CCC4)cc1`, for which the RP-LC retention time came out at 733 s.

Turning to `CCc1nc(-c2ccc(S(=O)(=O)N3CCC(C(=O)NCc4cccs4)CC3)cc2)no1`, the RP-LC retention time is 917 s.

Molecule `CCn1cc(C(=O)NCCC(C)C)c2nn(-c3ccccc3)c(=O)c-2c1` yielded an RP-LC retention time of 878 s.

Consider `CCOc1ccccc1CNC(=O)c1ccc2[nH]c3c(c2c1)CN(C(C)=O)CC3`, for which the RP-LC retention time was 649 s.

Regarding `CCc1ccc(Nc2c(C(=O)N3CCOCC3)cnc3nc(C)ccc23)cc1`, the RP-LC retention time was 601 s.

In turn, `O=C(NC1CCCCCC1)C1CCCN(c2ncnc3c2oc2ccccc23)C1` (centres undefined) showed an RP-LC retention time of 815 s.

The molecule `CCc1ccc(CNC(=O)c2cc3n(n2)CC(C)(C(=O)NC2CCCC2)N(C)C3=O)cc1` (centres undefined) gave an RP-LC retention time of 812 s.

These data come from the METLIN SMRT retention time set (Domingo-Almenara et al. 2019).
